Test results reported in paper PMC12172032, “Chemical and Genetic Validation of an Essential Calcium Entry Channel of Trypanosoma brucei as a Therapeutic Target” (ACS Infectious Diseases, 2025).

Biological target: T1, TbCaV (TbCav; FS179; TbCaCh) (Trypanosoma brucei, UniProt Q38BV7)
T1 construct: gene Tb10.70.4750; native full-length channel in intact T. brucei cells, 2693 aa, approx. 301 kDa, single subunit, untagged wild type
Experiment: Ca2+ entry into intact T. brucei, Cal-590 fluorescence
Assay type: cell-based
Settings: wild-type T. brucei BSF (Figure 9A inset); 1.8 mM Ca2+ added after 100 μM EGTA, BAG buffer pH 7.0; whole-cell Ca2+ entry attributed to TbCaV, direct binding not shown

T1 sequence (Q38BV7 1-2693): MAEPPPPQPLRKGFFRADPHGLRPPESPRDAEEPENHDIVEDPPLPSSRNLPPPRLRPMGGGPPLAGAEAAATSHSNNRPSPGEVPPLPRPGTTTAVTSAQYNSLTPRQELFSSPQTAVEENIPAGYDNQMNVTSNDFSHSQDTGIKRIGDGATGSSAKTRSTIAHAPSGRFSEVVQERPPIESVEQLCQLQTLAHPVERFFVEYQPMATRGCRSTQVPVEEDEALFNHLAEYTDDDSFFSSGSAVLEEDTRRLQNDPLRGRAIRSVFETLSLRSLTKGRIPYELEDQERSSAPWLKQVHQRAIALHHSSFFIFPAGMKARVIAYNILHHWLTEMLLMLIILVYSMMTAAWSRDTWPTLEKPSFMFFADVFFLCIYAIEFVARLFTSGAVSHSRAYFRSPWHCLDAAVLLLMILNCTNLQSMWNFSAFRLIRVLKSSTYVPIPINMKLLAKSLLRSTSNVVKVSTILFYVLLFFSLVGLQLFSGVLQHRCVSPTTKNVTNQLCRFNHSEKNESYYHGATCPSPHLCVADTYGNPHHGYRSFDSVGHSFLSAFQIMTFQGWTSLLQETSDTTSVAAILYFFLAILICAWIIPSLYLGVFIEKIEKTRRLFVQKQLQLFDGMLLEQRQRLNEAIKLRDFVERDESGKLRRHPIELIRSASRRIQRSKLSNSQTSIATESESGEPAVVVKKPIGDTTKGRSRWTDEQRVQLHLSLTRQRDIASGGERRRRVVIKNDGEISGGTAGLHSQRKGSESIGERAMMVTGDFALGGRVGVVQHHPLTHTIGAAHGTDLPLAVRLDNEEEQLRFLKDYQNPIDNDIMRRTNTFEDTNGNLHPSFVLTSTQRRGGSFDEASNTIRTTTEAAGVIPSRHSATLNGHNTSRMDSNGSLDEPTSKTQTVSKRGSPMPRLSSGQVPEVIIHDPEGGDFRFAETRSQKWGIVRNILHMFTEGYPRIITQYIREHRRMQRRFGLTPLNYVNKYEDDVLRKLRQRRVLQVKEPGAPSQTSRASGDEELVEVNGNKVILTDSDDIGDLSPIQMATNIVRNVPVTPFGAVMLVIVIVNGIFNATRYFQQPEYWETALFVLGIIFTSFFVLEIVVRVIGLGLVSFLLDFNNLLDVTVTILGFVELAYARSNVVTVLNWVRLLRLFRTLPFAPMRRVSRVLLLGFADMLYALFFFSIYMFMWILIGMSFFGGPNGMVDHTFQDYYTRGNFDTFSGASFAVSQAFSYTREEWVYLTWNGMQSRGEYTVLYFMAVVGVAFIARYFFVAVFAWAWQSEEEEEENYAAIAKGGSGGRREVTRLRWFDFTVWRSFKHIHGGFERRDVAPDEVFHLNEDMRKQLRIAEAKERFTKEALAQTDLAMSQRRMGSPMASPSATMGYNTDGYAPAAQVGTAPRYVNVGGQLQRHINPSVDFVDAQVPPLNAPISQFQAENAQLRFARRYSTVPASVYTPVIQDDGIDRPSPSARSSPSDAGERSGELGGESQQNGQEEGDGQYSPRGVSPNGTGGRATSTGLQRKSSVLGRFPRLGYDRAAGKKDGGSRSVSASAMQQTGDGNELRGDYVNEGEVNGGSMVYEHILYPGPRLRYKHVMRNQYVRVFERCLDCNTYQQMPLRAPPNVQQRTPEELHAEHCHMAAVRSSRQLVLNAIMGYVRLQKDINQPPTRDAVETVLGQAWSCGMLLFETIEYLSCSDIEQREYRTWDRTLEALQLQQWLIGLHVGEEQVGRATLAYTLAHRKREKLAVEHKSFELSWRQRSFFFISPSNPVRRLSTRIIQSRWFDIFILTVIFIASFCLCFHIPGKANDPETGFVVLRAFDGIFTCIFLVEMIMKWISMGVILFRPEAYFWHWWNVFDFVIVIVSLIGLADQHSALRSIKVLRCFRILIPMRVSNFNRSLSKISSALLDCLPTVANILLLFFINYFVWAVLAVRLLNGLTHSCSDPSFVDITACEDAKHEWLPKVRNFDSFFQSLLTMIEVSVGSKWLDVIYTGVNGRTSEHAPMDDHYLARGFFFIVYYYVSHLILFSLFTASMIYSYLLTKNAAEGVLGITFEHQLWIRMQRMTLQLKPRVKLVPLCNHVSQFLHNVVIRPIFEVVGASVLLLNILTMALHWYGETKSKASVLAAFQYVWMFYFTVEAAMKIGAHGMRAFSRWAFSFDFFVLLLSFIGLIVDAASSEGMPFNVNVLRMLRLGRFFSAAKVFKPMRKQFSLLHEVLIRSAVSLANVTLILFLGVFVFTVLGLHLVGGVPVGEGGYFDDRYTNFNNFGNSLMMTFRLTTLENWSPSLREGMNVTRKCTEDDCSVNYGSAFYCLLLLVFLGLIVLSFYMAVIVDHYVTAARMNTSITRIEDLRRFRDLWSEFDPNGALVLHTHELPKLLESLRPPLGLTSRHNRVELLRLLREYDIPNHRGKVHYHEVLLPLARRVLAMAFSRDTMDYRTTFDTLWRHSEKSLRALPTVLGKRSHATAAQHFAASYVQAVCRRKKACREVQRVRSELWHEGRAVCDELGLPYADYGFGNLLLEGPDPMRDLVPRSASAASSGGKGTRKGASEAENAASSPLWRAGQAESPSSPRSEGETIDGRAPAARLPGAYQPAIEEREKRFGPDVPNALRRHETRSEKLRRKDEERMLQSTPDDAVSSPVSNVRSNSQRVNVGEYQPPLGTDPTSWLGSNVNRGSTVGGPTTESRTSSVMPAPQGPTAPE

CC(=O)Nc1ccc([N+](=O)[O-])c2nonc12 [NBD-A, N-(7-nitro-2,1,3-benzoxadiazol-4-yl) acetamide] gave an IC50 of 1460 ± 30 nM.
